We go through 35 compounds from patent US6329189A, “Enzyme producing tartaric acid ether compound and process for producing tartaric acid ether compounds using this enzyme” (Kikkoman Corporation, priority 1998, dated 2001).

Data set [1] has as its system enzyme producing tartaric acid ether compound. The data set can be described thus: Influence of metallic ions on the action of the present enzyme. In kind it is biochemical, Aspergillus oryzae. To be noted: for Relative activity (%): activity with no addition = 100%; for Influence on the activity of the present enzyme (in words): presence of the ion or EDTA. Here is the method: "Relative activity (%)" in Table 2 is the value relative to the activity (expressed as 100) observed when no metallic ion was added.
The activity observed with no addition of metallic ions was expressed as 100%.

For data set [2] the test system is unchanged. The data set can be described thus: Substrate specificity of the present enzyme in the presence of (±)-trans-epoxysuccinic acid. The format is biochemical, Aspergillus oryzae. To be noted: for Action of the enzyme to the phenolic hydroxyl groups of the substrate (in words): in the presence of (±)-trans-epoxysuccinic acid; for Relative activity (%): substrate in the presence of (±)-trans-epoxysuccinic acid, decrement of genistein as substrate expressed as 100. Here is the method: The activities of the present enzyme to the various substrate compounds having a phenolic hydroxyl group(s) shown in Table 1 in the presence of (±)-trans-epoxysuccinic acid were measured and shown as relative activities (%) with reference to the activity to genistein which was expressed as 100. The measurement of activity was conducted under the same conditions as used for the determination of titer described later.
Enzyme titer was determined by the following method. The amount of the enzyme that produces 1 μmol of 2-hydroxy-3-[[5-hydroxy-3-(4-hydroxyphenyl)-4-oxo-4H-1-benzopyran-7-yl]oxy]-butanedioic acid in one minute in the reaction of the following formula (6) is expressed as 1 U. [drawing 1]
Substrate solution I: 60 mM (±)-trans-epoxysuccinic acid (Tokyo Kasei Kogyo Co., Ltd.) was dissolved in 100 ml of a 50 mM sodium acetate-acetic acid buffer (pH 6.0), and the solution was adjusted to pH 6.0 with sodium hydroxide.
Substrate solution II: Prepared by dissolving 0.3 mmol of genistein (Funakoshi Co., Ltd.) in 100 ml of dimethyl sulfoxide.
50 mmol of sodium acetate and 40 mmol of manganese sulfate were dissolved in distilled water, and the solution was adjusted to pH 6.0 with acetic acid and made one litre.
(1) 0.175 ml of the buffer, 0.1 ml of the substrate solution I and 0.01 ml of an enzyme solution were pipetted into a microtube, and the mixed solution was preincubated at 37° C. for 5 minutes.
(2) The above solution was mixed with 0.025 ml of the substrate solution II and reacted at 37° C. for 15 minutes, after which 0.01 ml of concentrated hydrochloric acid was added to stop the reaction. Used as control was a solution prepared in the same way as described above except that 0.01 ml of the buffer was added in place of 0.01 ml of the enzyme solution.
2-hydroxy-3-[[5-hydroxy-3-(4-hydroxyphenyl)-4-oxo-4H-1-benzopyran-7-yl]oxy]-butanedioic acid produced from the reaction of the formula (6) was determined by HPLC under the following conditions: […]
Column: Wakosil-II5C18HG (4.6 mm×30 mm+4.6 mm×250 mm, mfd. by Wako Pure Chemical Industries, Ltd.).
Eluent: distilled water containing 0.05% of trifluoroacetic acid and 28.8% of acetonitrile.
Detecting wavelengh: 260 nm.

Data set [3] can be described thus: Solubility in solvents of the enzyme reaction products. In kind it is physicochemical. To be noted: water, methanol, DMSO.
Data set [4] addresses T1, histidine decarboxylase (HDC) (Homo sapiens, UniProt P19113).
T1 sequence (P19113 1-662): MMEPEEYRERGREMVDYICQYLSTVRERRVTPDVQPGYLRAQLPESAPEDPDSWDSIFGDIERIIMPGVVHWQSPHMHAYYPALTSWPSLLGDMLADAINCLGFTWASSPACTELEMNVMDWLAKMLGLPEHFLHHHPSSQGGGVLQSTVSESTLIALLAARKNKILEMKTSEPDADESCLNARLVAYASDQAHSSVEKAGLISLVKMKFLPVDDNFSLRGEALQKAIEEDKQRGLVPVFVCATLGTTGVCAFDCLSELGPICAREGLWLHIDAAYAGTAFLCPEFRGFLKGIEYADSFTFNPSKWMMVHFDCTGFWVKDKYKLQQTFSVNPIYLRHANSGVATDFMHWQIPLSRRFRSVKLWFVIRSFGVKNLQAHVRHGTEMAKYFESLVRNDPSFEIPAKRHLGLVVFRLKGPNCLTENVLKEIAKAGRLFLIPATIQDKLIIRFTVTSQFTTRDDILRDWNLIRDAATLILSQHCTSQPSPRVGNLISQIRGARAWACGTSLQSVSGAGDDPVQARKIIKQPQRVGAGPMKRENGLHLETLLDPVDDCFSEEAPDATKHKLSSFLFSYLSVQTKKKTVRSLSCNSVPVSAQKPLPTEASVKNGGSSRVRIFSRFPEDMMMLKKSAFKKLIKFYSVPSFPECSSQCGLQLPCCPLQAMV
The following applies: from JP-A-9-110857 and JP-A-10-59956; cited from earlier work.

Counter-ions that a name gives are not always drawn.

With `[Zn+2]` [Zn^2+], in data set [1] (20 mM metallic ion), the “Relative activity (%)” value was 416%. Moreover, the “Influence on the activity of the present enzyme (in words)” value (“Influence on the activity” for short) in data set [1] is “enhanced”.
Take `O=C(/C=C/c1ccc(O)c(O)c1)c1c(O)cc(O)cc1O` [2',4',6',3,4-pentahydroxychalcone]: in data set [2], the “Action of the enzyme to the phenolic hydroxyl groups of the substrate (in words)” value (“Action of the enzyme” below) is recorded as “acts in a favorable way” and the “Relative activity (%)” value is on record as 115%.
With `[Ni+2]` [Ni^2+], in data set [1] (20 mM metallic ion), the “Relative activity (%)” value is on record as 198%. Further, the “Influence on the activity” value in data set [1] is reported as “enhanced”.
Turning to `[Ca+2]` [Ca^2+], the “Relative activity (%)” value in data set [1] (20 mM metallic ion) is 140%. Moreover, the “Influence on the activity” value in data set [1] is recorded as “enhanced”.
Take `O=c1c(-c2ccc(O)cc2)coc2cc(O)ccc12` [daidzein]: in data set [2], the “Action of the enzyme” value is reported as “acts in a favorable way” and the “Relative activity (%)” value worked out at 52%.
Take `O=C1/C(=C/c2ccc(O)c(O)c2)Oc2cc(O)ccc21` [sulfuretin]: in data set [2], the “Action of the enzyme” value is “acts in a favorable way” and the “Relative activity (%)” value was found to be 316%.
In the case of `COc1ccc(-c2coc3cc(O)cc(O)c3c2=O)cc1` [biochanin A], in data set [2], the “Action of the enzyme” value is “acts in a favorable way” and the “Relative activity (%)” value is on record as 86%.
Regarding `O=C(O)C(O)C(Oc1cc(O)c2c(=O)c(O)c(-c3ccc(O)cc3)oc2c1)C(=O)O` (stereo not drawn) [Example 3 enzyme reaction product I], in data set [3], the Solubility in solvents result was “soluble in water, methanol and DMSO”.
In the case of `O=c1c(-c2ccc(O)cc2)coc2cc(O)c(O)cc12` [4',6,7-trihydroxyisoflavone], in data set [2], the “Action of the enzyme” value is “acts in a favorable way” and the “Relative activity (%)” value was determined as 182%.
Take `[Cu+2]` [Cu^2+]: in data set [1] (20 mM metallic ion), the “Relative activity (%)” value came out at 0%. In addition, the “Influence on the activity” value in data set [1] was “greatly inhibited”.
Regarding `O=c1oc2cc(O)ccc2c2oc3cc(O)ccc3c12` [courmestrol], in data set [2], the “Action of the enzyme” value is on record as “acts in a favorable way” and the “Relative activity (%)” value turned out to be 58%.
Turning to `O=C1C[C@@H](c2ccc(O)cc2)Oc2cc(O)cc(O)c21` [naringenin], in data set [2], the “Action of the enzyme” value is “acts in a favorable way” and the “Relative activity (%)” value is listed as 194%.
Regarding `O=c1cc(-c2ccccc2)oc2cc(O)c(O)c(O)c12` [baicalein], in data set [2], the “Action of the enzyme” value was “acts in a favorable way” and the “Relative activity (%)” value stood at 321%.
The matching figures for `O=C1c2c(O)cc(O)cc2O[C@H](c2ccc(O)c(O)c2)[C@H]1O` [(+)-taxifolin]: “acts in a favorable way” and 106%.
For the compound `O=c1c(O)c(-c2ccc(O)cc2)oc2cc(O)cc(O)c12` [kaempferol], in data set [2], the “Action of the enzyme” value is “acts in a favorable way” and the “Relative activity (%)” value turned out to be 278%.
`O=c1c(O)c(-c2ccc(O)c(O)c2)oc2cc(O)cc(O)c12` [quercetin]: the “Relative activity (%)” value in data set [2] turned out to be 31%.
As for `[Mg+2]` [Mg^2+], the “Relative activity (%)” value in data set [1] (20 mM metallic ion) turned out to be 220%. Also, the “Influence on the activity” value in data set [1] was “enhanced”.
Turning to `O=C(O)C(O)C(Oc1cc(O)c2c(c1)O[C@H](c1ccc(O)c(O)c1)[C@@H](O)C2=O)C(=O)O` (single isomer, unassigned) [Example 5 enzyme reaction product], the Solubility in solvents entry in data set [3] was “soluble in water, methanol and DMSO”.
Regarding `Cc1cc(=O)oc2cc(O)cc(O)c12` [5,7-dihydroxy-4-methylcoumarin], in data set [2], the “Action of the enzyme” value was “acts in a favorable way” and the “Relative activity (%)” value was found to be 107%.
On to `[Co+2]` [Co^2+], for which, in data set [1] (20 mM metallic ion), the “Relative activity (%)” value turned out to be 236%. Besides, the “Influence on the activity” value in data set [1] is “enhanced”.
Regarding `O=C1C(=Cc2ccc(O)c(O)c2)Oc2cc(OC(C(=O)O)C(O)C(=O)O)ccc21` (stereo not drawn) [Example 2 enzyme reaction product], in data set [3], the Solubility in solvents result was “soluble in water, methanol and DMSO”.
As for `O=C(O)C(O)C(Oc1cc(O)c2c(=O)cc(-c3ccc(O)cc3)oc2c1)C(=O)O` (stereo not drawn) [Example 6 enzyme reaction product], in data set [3], the Solubility in solvents entry is “soluble in water, methanol and DMSO”.
`O=C1CC(c2ccc(O)cc2)Oc2cc(OC(C(=O)O)C(O)C(=O)O)cc(O)c21` (stereo not drawn) [Example 4 enzyme reaction product I]: the Solubility in solvents entry in data set [3] is “soluble in water, methanol and DMSO”.
Take `[Mn+2]` [Mn^2+]: the “Relative activity (%)” value in data set [1] (20 mM metallic ion) stood at 268%. For the same compound, the “Influence on the activity” value in data set [1] was “enhanced”.
On to `Oc1cc(O)c2c(c1)OC(c1ccc(O)c(O)c1)C(O)C2` (stereo not drawn) [catechin], for which, in data set [2], the “Relative activity (%)” value is given as 16%.
For `O=C1COc2cc(O)ccc21` [6-hydroxy-2H-benzofuran-3-one], in data set [2], the “Action of the enzyme” value is recorded as “acts in a favorable way” and the “Relative activity (%)” value amounted to 135%.
Consider `[Fe+2]` [Fe^2+], for which the “Relative activity (%)” value in data set [1] (20 mM metallic ion) is 125%; in data set [1] (20 mM metallic ion, listed as Fe^3+) it was 33%. For the same compound, the “Influence on the activity” value in data set [1] is reported as “enhanced”.
For `O=C(O)C(O)C(Oc1ccc2c(=O)c(-c3ccc(O)cc3)coc2c1)C(=O)O` (single isomer, unassigned) [2-hydroxy-3-[[3-(4-hydroxyphenyl)-4-oxo-4H-1-benzopyran-7-yl]oxy]-butanedioic acid], the “Inhibitory action against histidine decarboxylase (HDC)” value in data set [4] is reported as “prominent inhibitory action”.
As for `COc1cc(C(=O)O)ccc1O` [vanillic acid], in data set [2], the “Action of the enzyme” value is “acts faintly” and the “Relative activity (%)” value was 4%.
With `O=c1cc(CO)occ1O` [kojic acid], in data set [2], the “Action of the enzyme” value is on record as “acts faintly” and the “Relative activity (%)” value came to 4%.
For `O=C(O)C(O)C(Oc1cc(O)c2c(=O)c(-c3ccc(O)cc3)coc2c1)C(=O)O` (single isomer, unassigned) [2-hydroxy-3-[[5-hydroxy-3-(4-hydroxyphenyl)-4-oxo-4H-1-benzopyran-7-yl]oxy]-butanedioic acid], the “Inhibitory action against histidine decarboxylase (HDC)” value in data set [4] was “prominent inhibitory action”.
For `O=c1cc(-c2ccc(O)cc2)oc2cc(O)cc(O)c12` [apigenin], in data set [2], the “Action of the enzyme” value is “acts in a favorable way” and the “Relative activity (%)” value is recorded as 92%.
With `O=C(O)C(O)C(Oc1ccc(-c2oc3cc(OC(C(=O)O)C(O)C(=O)O)cc(O)c3c(=O)c2O)cc1)C(=O)O` (stereo not drawn) [Example 3 enzyme reaction product II], the Solubility in solvents result in data set [3] was “soluble in water, methanol and DMSO”.
Take `O=C(O)CN(CCN(CC(=O)O)CC(=O)O)CC(=O)O` [EDTA, ethylenediamine-N,N,N'N'-tetraacetic acid disodium salt]: the “Relative activity (%)” value in data set [1] (5 mM EDTA) is 12%. Moreover, the “Influence on the activity” value in data set [1] is on record as “greatly inhibited”.
Take `O=C1CC(c2ccc(OC(C(=O)O)C(O)C(=O)O)cc2)Oc2cc(OC(C(=O)O)C(O)C(=O)O)cc(O)c21` (stereo not drawn) [Example 4 enzyme reaction product II]: the Solubility in solvents entry in data set [3] is “soluble in water, methanol and DMSO”.
